59 compounds from the METLIN SMRT retention time set (Domingo-Almenara et al. 2019) can be followed below.

The data set is described as follows: gradient 5% acetonitrile 3 min, to 50% in 2 min, to 85% in 15 min, held 3 min, 100 µL/min. The settings on record: column: Zorbax Extend-C18 2.1 x 50 mm; eluents: water / acetonitrile, 0.1% formic acid. The gist of the method: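 Standards, all pure, were combined into mixtures of ~100 molecules and run at 100 μL/min on a Zorbax Extend-C18 column (2.1 × 50 mm, 1.8 μm) with water and acetonitrile, each containing 0.1% formic acid. A coupled quadrupole time-of-flight mass spectrometer operated in positive and negative ionization mode. Retention time values come from computationally picked adduct peaks, each inspected manually.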
On to `Cc1noc(C)c1COc1ccccc1CN1CCC2(CCC2O)CC1` (centres undefined), for which the RP-LC retention time worked out at 621 s. As for `CCc1ccc(C(=O)N2CCC3(CC2)N=C(c2ccc(C)cc2)NO3)cc1`, the RP-LC retention time was found to be 933 s.

In turn, `COCCCNC(=O)C1c2ccccc2C(=O)N(Cc2ccccc2)C12CCCC2` (centres undefined) gave an RP-LC retention time of 846 s. Then `Cc1cccc(N2CCN(C(=O)C3=CCN(Cc4cccc(F)c4)CC3)CC2)c1`, with 690 s. On to `O=C(Nc1nnc(Cc2ccc3c(c2)OCCO3)o1)c1sc2ccccc2c1Cl`, for which the RP-LC retention time was determined as 950 s. Then `COc1cccc(N2CCN(C(=O)c3[nH]c(C)c(S(=O)(=O)N4CCOCC4)c3C)CC2)c1`, with 772 s; and `O=C(CN1C(=O)C(C(=O)N2CCCCCC2)Sc2ccccc21)N1CCN(c2ccccn2)CC1` (centres undefined), with 650 s. Then `COc1cccc(CNC(=O)c2cc(NC(C)=O)cc3nc(C)ccc23)c1OC`, with 594 s; and `CC1CCCCN1S(=O)(=O)c1ccc2c(c1)CCC(=O)N2CC(=O)NCc1ccccc1` (centres undefined), with 876 s. With `CCSc1nc2ccc(NS(=O)(=O)c3cc(C)cc(C)c3)cc2s1`, the RP-LC retention time worked out at 1120 s.

Turning to `CCn1c(=O)c(N2CCC(NC(=O)NCc3ccccc3)CC2)nc2ccccc21`, the RP-LC retention time worked out at 838 s. The figure for `O=C(NCCCN1CCCC1=O)C(=O)NCCC1=CCCCC1` is 686 s; for `O=C(Nc1cccc(Cl)c1)c1ccccn1` it is 1010 s; for `COc1ccc(OC)c(CNC(=O)C2CCN(c3cnc4nccnc4c3)CC2)c1` it is 680 s.

The compound `Cc1cccc(NC(=O)Nc2nc(C)c(C(=O)NCc3ccc4c(c3)OCO4)s2)c1` displayed an RP-LC retention time of 1020 s.

Turning to `Cc1cc(NC(=O)C2CCN(C(=O)c3nc4ccccc4s3)CC2)no1`, the RP-LC retention time was 746 s.

In turn, `Cc1nc([C@@H]2CN(C(=O)CCc3c(C)noc3C)C[C@H]2C(N)=O)n[nH]1` had an RP-LC retention time of 569 s. In turn, `CCN1C(=O)COc2ccc(-c3noc(Cc4ccc(Cl)cc4)n3)cc21` gave an RP-LC retention time of 1100 s. The figure for `NC(=O)C1CCN([C@H]2CS(=O)(=O)C[C@@H]2S(=O)(=O)c2ccc(F)cc2)CC1` is 629 s; for `CCN(CC)CCCNC(=O)C(C)n1nc(C)c2c(C)n(-c3ccccc3)nc2c1=O` (centres undefined) it is 621 s.

Regarding `CC1CCN(c2nn(CC(=O)Nc3ccc(F)cc3)c(=O)c3ccccc23)CC1`, the RP-LC retention time came to 1120 s. The figure for `CN(C)C(=O)c1cc2c(s1)CCC(C(=O)NC1CCCCCC1)C2` (centres undefined) is 751 s. Then `O=C(Cn1cccc1-c1nc(-c2ccc3c(c2)OCO3)no1)Nc1ccc2c(c1)OCCO2`, with 963 s; and `Cc1nn(-c2ccccc2)c(C)c1S(=O)(=O)N1CCC(C(=O)Nc2cccc(Cl)c2)CC1`, with 1040 s. The figure for `CCCn1cc(S(=O)(=O)Nc2cc(C)ccc2F)c2cccnc21` is 921 s; for `Cc1ccc(Cn2c(N3CCCC(C(=O)Nc4ccc(C)cc4)C3)nc3ccsc3c2=O)cc1` (centres undefined) it is 1080 s; for `CCn1cc(-c2nc(C)c(C(=O)NCc3cc(F)cc(F)c3)s2)c2cccnc21` it is 884 s.

With `Cc1nc(OCC(=O)N2CCc3ccccc32)c2c(-c3ccccc3)noc2n1`, the RP-LC retention time is 1100 s. The figure for `COc1ccc(-c2nn3c(N4CCN(c5ccccn5)CC4)cc(C)nc3c2C)cc1` is 615 s. Then `O=C(Cn1c(=O)c(S(=O)(=O)c2ccccc2)cc2ccccc21)NC1CCCC1`, with 840 s; and `CCn1cnc(S(=O)(=O)N2CCC(C(=O)NCc3ccc4c(c3)OCO4)CC2)c1`, with 684 s; and `Cc1sc2ccn(C)c(=O)c2c1C(=O)NCc1ccccc1Cl`, with 798 s. In turn, `COCCNC(=O)C1CCCN(c2ncnc3c2oc2ccccc23)C1` (centres undefined) gave an RP-LC retention time of 633 s.

Turning to `Cn1cnc(S(=O)(=O)N2CCC(C(=O)Nc3ccc4c(c3)OCCO4)CC2)c1`, the RP-LC retention time was found to be 663 s. The figure for `CN(c1ccc(F)cc1)S(=O)(=O)N1CCCC(C(=O)NCCc2c[nH]c3ccccc23)C1` (centres undefined) is 932 s; for `COc1ccc(S(=O)(=O)N2CCC(c3nc(C(=O)N(C)C)c(C)o3)CC2)cc1Cl` it is 806 s. Then `COc1cccc2c(=O)c(NC(=O)N3CCCC(C(N)=O)C3)c[nH]c12` (centres undefined), with 580 s; and `Cc1ccc(-c2nc(-c3ccc4oc(C)nc4c3)no2)c(C)c1`, with 1310 s; and `O=C(Cc1ccccc1)NC(c1ccccc1)c1ccc2cccnc2c1O` (centres undefined), with 822 s. With `Cc1ccc(NC(=O)Cn2cnc3nc(N4CCCC(C(=O)NC(C)C)C4)sc3c2=O)cc1` (centres undefined), the RP-LC retention time is 711 s. The figure for `CC1=C(c2ccccc2)S(=O)(=O)N=C1N1CCCN(C(=O)c2cc(F)cc(F)c2)CC1` is 846 s.

Take `O=C(c1ccco1)N1CCC(c2nc(-c3ccccc3)no2)C1` (centres undefined): the RP-LC retention time stood at 822 s.

As to `CCOC(=O)CNC(=O)N1CCCC1c1ccc(C)cc1` (centres undefined), the RP-LC retention time amounted to 801 s. Compound `CC(C)c1ccc(N2C=C(C(=O)N3CCOCC3)S(=O)(=O)c3ccccc32)cc1` yielded an RP-LC retention time of 916 s.

The compound `CN(C)c1nccnc1OC1CCN(C(=O)C2CCOCC2)C1` (centres undefined) had an RP-LC retention time of 605 s. With `CCCn1c(-c2cccc(C(=O)NCc3ccc(SC)cc3)c2)nc2cccnc21`, the RP-LC retention time turned out to be 874 s. The figure for `COc1cc2c(cc1OC)[C@@H](C(=O)Nc1ccc(F)cc1)[C@@H]1CCCCN1C2=O` is 773 s; for `CCn1cc(-c2nc(C(=O)Nc3ccc(F)cc3C)cs2)c2cccnc21` it is 1000 s. Then `COc1ccc(-c2cn3c(CC(=O)Nc4ccccc4Cl)csc3n2)cc1OC`, with 728 s. Then `CCc1nc(-c2ccc3c(c2)CCN3C(=O)COc2ccccc2)no1`, with 988 s; and `Cc1nc([C@@H]2CN(C(=O)c3sc(C)nc3C)C[C@H]2C(N)=O)n[nH]1`, with 550 s; and `O=C(NCc1ccccc1Br)C1CCCN(c2cnc3nccnc3c2)C1` (centres undefined), with 728 s. Turning to `O=C(Nc1cc(Cl)ccc1F)C1CCCN(c2nnc3ccccn23)C1` (centres undefined), the RP-LC retention time turned out to be 649 s. The compound `COc1ccc(Cl)cc1NC(=O)NCCCn1c(C(F)(F)F)nc2cccnc21` registered an RP-LC retention time of 890 s.

`CC(C)c1ccc(C(O)Cn2ccn3nc(-c4ccc(F)cc4)cc3c2=O)cc1` (centres undefined) yielded an RP-LC retention time of 1110 s. Then `O=C(NCCN1CCOCC1)c1ccc2nc(Cc3ccccc3)oc2c1`, with 631 s.

In the case of `Cc1cccc(OCC(=O)Nc2cccn3nc(C)nc23)c1`, the RP-LC retention time worked out at 834 s. The figure for `CC(COc1ccccc1)NC(C)C(O)c1ccc(O)cc1` (centres undefined) is 686 s; for `CC(C)(C)NC(=O)N1CCC(OC2CCN(Cc3ccccc3)CC2)CC1` it is 625 s.
